pIC50: −log10 of the molar value.

Data set [1] concerns the target T1, BRD4_2 (Homo sapiens, UniProt O60885).
T1 construct: contains two tandem bromodomains (BrD1 and BrD2)
In words: Fluorescence anisotropy binding assay (competition with FITC-labeled MS417 probe), BRD4_2. To be noted: FITC-MS417 probe 80 nM, PBS pH 7.4, 1 hour, 25° C. Background: In fluorescence polarisation assays a small probe gives low polarisation when free and higher when bound to something large.

The target in data set [2] is T2, first bromodomain (BrD1) of human BRD4 (Homo sapiens, UniProt O60885).
T2 construct: the first bromodomain (BrD1) of human BRD4; poly-His (cleaved yes); made in house
The data set is described as follows: Fluorescence anisotropy binding assay (competition with FITC-labeled MS417 probe). To be noted: FITC-MS417 probe 80 nM, PBS pH 7.4, 1 hour, 25° C., read-out: BRD4_1 IC50. The gist of the method: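 Competitive fluorescence anisotropy in PBS pH 7.4: 80 nM FITC-MS417 probe, 0.25 to 1 μM tag-cleaved BrD1, titrated unlabeled ligand, 1 hour at 25° C. IC50 values were fitted and converted to Ki using a corrected Cheng-Prusoff equation assuming one-site competition.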

As for `CC1=C(Nc2cccc(Br)c2)CCC1=O`, the melting point was in the range of 291 to 294 °C.

`COc1c(NC2=C(C)C(=O)CC2)cccc1C(=O)O` had a melting point of 220 to 223 °C.

With `CC1=C(Nc2ccc(C(=O)Nc3cccc(C)c3)cc2C)CCC1=O` [Example 04-85, 3-methyl-4-((2-methyl-3-oxocyclopent-1-en-1-yl)amino)-N-(m-tolyl)benzamide], the pIC50 in data set [1] and in data set [2] was 5.00 to 6.00 each time.

In the case of `CC1=C(Nc2ccc(C(=O)Nc3ccc(C)cc3)cc2C)CCC1=O` [Example 04-86, 3-methyl-4-((2-methyl-3-oxocyclopent-1-en-1-yl)amino)-N-(p-tolyl)benzamide], the negative-log IC50 (pIC50) in data set [1] and in data set [2] was 5.00 to 6.00 in each case.

On to `COC(=O)c1cccc(NC(=O)c2ccc(Cl)c(NC3=C(C)C(=O)CCC3)c2)c1C` [Example 04-92, methyl 3-(4-chloro-3-((2-methyl-3-oxocyclohex-1-en-1-yl)amino)benzamido)-2-methylbenzoate], for which the pIC50 in data set [1] is below 5.00; in data set [2], 5.00 to 6.00.

Consider `COC(=O)c1ccc(C)c(NC(=O)c2ccc(Cl)c(NC3=C(C)C(=O)CCC3)c2)c1` [Example 04-93, methyl 3-(4-chloro-3-((2-methyl-3-oxocyclohex-1-en-1-yl)amino)benzamido)-4-methylbenzoate], for which the pIC50 in data set [1] and in data set [2] was 5.00 to 6.00 throughout.

`CC1=C(Nc2cc(C(=O)Nc3cccc(C(=O)O)c3C)ccc2Cl)CCCC1=O` [Example 04-95, 3-(4-chloro-3-((2-methyl-3-oxocyclohex-1-en-1-yl)amino)benzamido)-2-methylbenzoic acid]: the negative logarithm of the IC50 (pIC50) in data set [1] and in data set [2] was below 5.00 each time.

Consider `CC1=C(Nc2cc(C(=O)Nc3cc(C(=O)O)ccc3C)ccc2Cl)CCCC1=O` [Example 04-96, 3-(4-Chloro-3-((2-methyl-3-oxocyclohex-1-en-1-yl)amino)benzamido)-4-methylbenzoic acid], for which the pIC50 in data set [1] was below 5.00; in data set [2], 5.00 to 6.00.

Consider `CC1=C(Nc2cc(C(=O)Nc3ccc(C(=O)O)cc3C)ccc2Cl)CCCC1=O` [Example 04-97, 4-(4-chloro-3-((2-methyl-3-oxocyclohex-1-en-1-yl)amino)benzamido)-3-methylbenzoic acid], for which the pIC50 is below 5.00 in data set [1] and 5.00 to 6.00 in data set [2].

Turning to `COc1ccc(NC(=O)Cc2ccc(NC3=C(C)C(=O)CCC3)cc2)cc1` [Example 04-99, N-(4-methoxyphenyl)-2-(4-((2-methyl-3-oxocyclohex-1-en-1-yl)amino)phenyl)-acetamide], the pIC50 in data set [1] and in data set [2] was 5.00 to 6.00 throughout.

Take `COc1ccc(NC(=O)c2cc(NC3=C(C)C(=O)CCC3)cc3ccccc23)cc1` [Example 04-105, N-(4-methoxyphenyl)-3-((2-methyl-3-oxocyclohex-1-en-1-yl)amino)-1-naphthamide]: the negative-log IC50 (pIC50) in data set [1] was 5.00 to 6.00; in data set [2] it was above 6.00.

As for `COC(=O)c1ccc(NC2=C(C)C(=O)CCC2)c(Cl)c1` [Example 05-12, methyl 3-chloro-4((2-methyl-3-oxocyclohex-1-en-1-yl)amino)benzoate], the negative logarithm of the IC50 (pIC50) in data set [1] and in data set [2] was 5.00 to 6.00 throughout.

As to `COc1ccccc1NC(=O)c1ccc(NC2=C(C)C(=O)CCC2)c(Cl)c1` [Example 05-14, 3-chloro-N-(2-methoxyphenyl)-4-((2-methyl-3-oxocyclohex-1-en-1-yl)amino)benzamide], the negative-log IC50 (pIC50) was 5.00 to 6.00 in data set [1] and above 6.00 in data set [2].

In the case of `COc1ccc(NC(=O)c2ccc(NC3=C(C)C(=O)CC3)c(F)c2)cc1` [Example 05-17, 3-fluoro-N-(4-methoxyphenyl)-4-((2-methyl-3-oxocyclopent-1-en-1-yl)amino)benzamide], the pIC50 in data set [1] and in data set [2] was 5.00 to 6.00 throughout.

`COc1ccc(NC(=O)c2ccc(NC3=C(C)C(=O)CC3)c(Br)c2)cc1` [Example 05-18, 3-bromo-N-(4-methoxyphenyl)-4-((2-methyl-3-oxocyclopent-1-en-1-yl)amino)benzamide]: the pIC50 in data set [1] is 5.00 to 6.00; in data set [2], above 6.00.

As for `N#CC1=C(Nc2cccc(Cl)c2)CCCC1=O` [Example 05-32, 2-((3-chlorophenyl)amino)-6-oxocyclohex-1-enecarbonitrile], the pIC50 in data set [1] and in data set [2] was below 5.00 each time.

Regarding `N#CC1=C(Nc2cc(C(=O)O)ccc2Cl)CCCC1=O` [Example 05-33, 4-chloro-3-((2-cyano-3-oxocyclohex-1-en-1-yl)amino)benzoic acid], the pIC50 in data set [1] and in data set [2] was below 5.00 throughout.

With `Cc1ccccc1NC(=O)c1ccc(Cl)c(NC2=C(C#N)C(=O)CCC2)c1` [Example 05-34, 4-chloro-3-((2-cyano-3-oxocyclohex-1-en-1-yl)amino)-N-(o-tolyl)benzamide], the pIC50 in data set [1] and in data set [2] was below 5.00 in each case.

For `COc1ccc(NC(=O)c2ccc(Cl)c(NC3=C(C#N)C(=O)CCC3)c2)cc1` [Example 05-35, 4-chloro-3-((2-cyano-3-oxocyclohex-1-en-1-yl)amino)-N-(4-methoxyphenyl)benzamide], the pIC50 in data set [1] and in data set [2] was below 5.00 in each case.

Take `COc1ccc(NC(=O)c2ccc(Cl)c(NC3=C(C#N)C(=O)CCC3)c2)c(C)c1` [Example 05-36, 4-chloro-3-((2-cyano-3-oxocyclohex-1-en-1-yl)amino)-N-(4-methoxy-2-methylphenyl)benzamide]: the negative logarithm of the IC50 (pIC50) in data set [1] and in data set [2] was below 5.00 in each case.

Turning to `CC1=C(Nc2cccc(NC(=O)c3ccccc3C)c2Cl)CCCC1=O` [Example 05-50, N-(2-chloro-3-((2-methyl-3-oxocyclohex-1-en-1-yl)amino)phenyl)-2-methylbenzamide], the negative-log IC50 (pIC50) in data set [1] was below 5.00; in data set [2] it was 5.00 to 6.00.

Consider `CC1=C(Nc2cc(NS(=O)(=O)c3ccccc3Cl)ccc2Cl)CCC1=O` [Example 05-56, N-(4-chloro-3-((2-methyl-3-oxocyclopent-1-en-1-yl)amino)-phenyl)-2-chlorobenzenesulfonamide], for which the negative logarithm of the IC50 (pIC50) in data set [1] and in data set [2] was above 6.00 each time.

`CC1=C(Nc2cccc(NS(=O)(=O)C3CCCCC3)c2Cl)CCCC1=O` [Example 05-71, N-(2-chloro-3-((2-methyl-3-oxocyclohex-1-en-1-yl)amino)phenyl)-cyclohexanesulfonamide]: the results for the pIC50 in data set [1] and in data set [2] were 5.00 to 6.00 and above 6.00, respectively.

For `CC1=C(Nc2cccc(Nc3ccccc3C)c2Cl)CCCC1=O` [Example 05-80, 3-((2-chloro-3-(o-tolylamino)phenyl)amino)-2-methylcyclohex-2-enone], the pIC50 in data set [1] is 5.00 to 6.00; in data set [2], above 6.00.

Take `CC1=C(Nc2cccc(NC(=O)/C=C\C(=O)O)c2Cl)CCCC1=O` [Example 05-85, (Z)-4-((2-chloro-3-((2-methyl-3-oxocyclohex-1-en-1-yl)amino)phenyl)-amino)-4-oxobut-2-enoic acid]: the pIC50 in data set [1] was below 5.00; in data set [2], above 6.00.

As for `CC1=C(Nc2cccc(-c3cn(Cc4ccccc4C)nn3)c2)CCC1=O` [Example 06-10, 2-methyl-3-((3-(1-(2-methylbenzyl)-1H-1,2,3-triazol-4-yl)phenyl)amino)cyclopent-2-enone], the figures for the pIC50 in data set [1] and in data set [2] were 5.00 to 6.00 and above 6.00, respectively.

As to `COc1ccc(Cn2cc(-c3cccc(NC4=C(C)C(=O)CC4)c3)nn2)cc1` [Example 06-15, 3-((3-(1-(4-methoxybenzyl)-1H-1,2,3-triazol-4-yl)phenyl)amino)-2-methylcyclopent-2-enone], the pIC50 is 5.00 to 6.00 in data set [1] and above 6.00 in data set [2].

Take `CC1=C(Nc2ccc(-c3cn(Cc4ccccc4)nn3)cc2)CCC1=O` [Example 06-28]: the negative logarithm of the IC50 (pIC50) in data set [1] was 5.00 to 6.00; in data set [2], above 6.00.

Consider `CC1=C(Nc2ccc(C(=O)O)cc2)CCC1=O` [Examples 02-1], for which the values for the pIC50 in data set [1] and in data set [2] were below 5.00 and 5.00 to 6.00, respectively.

As to `CC1=C(Nc2ccc(C(=O)O)cc2Cl)CCC1=O` [Examples 02-2], the pIC50 in data set [1] and in data set [2] was 5.00 to 6.00 each time.

Take `COc1cc(NC2=C(C)C(=O)CC2)ccc1C(=O)O` [Examples 02-3]: the negative logarithm of the IC50 (pIC50) in data set [1] and in data set [2] was below 5.00 each time.

As for `CC1=C(Nc2ccccc2C(=O)O)CCC1=O` [Examples 02-4], the negative logarithm of the IC50 (pIC50) in data set [1] and in data set [2] was below 5.00 each time.

For the molecule `CC1=C(Nc2ccc(Cl)cc2C(=O)O)CCC1=O` [Examples 02-5], the negative logarithm of the IC50 (pIC50) in data set [1] and in data set [2] was below 5.00 each time.

For the molecule `CC1=C(Nc2ccc(C(=O)O)cc2F)CCC1=O` [Examples 02-6], the negative-log IC50 (pIC50) in data set [1] was below 5.00; in data set [2], 5.00 to 6.00.

In the case of `CC1=C(Nc2ccc(C(=O)O)cc2Br)CCC1=O` [Examples 02-7], the negative logarithm of the IC50 (pIC50) was below 5.00 in data set [1] and 5.00 to 6.00 in data set [2].

As to `CC1=C(Nc2ccc(C(=O)O)cc2I)CCC1=O` [Examples 02-8], the pIC50 in data set [1] and in data set [2] was 5.00 to 6.00 in each case.

For the molecule `COC(=O)c1ccc(Br)c(NC2=C(C)C(=O)CCC2)c1` [Examples 02-9], the negative-log IC50 (pIC50) in data set [1] and in data set [2] was below 5.00 in each case.

`C#Cc1cccc(NC2=C(C)C(=O)CC2)c1` [Examples 06-1]: the pIC50 is below 5.00 in data set [1] and 5.00 to 6.00 in data set [2].

For the molecule `CC1=C(Nc2cccc(-c3cn(-c4ccccc4)nn3)c2)CCC1=O` [Examples 06-2, 2-methyl-3-((3-(1-phenyl-1H-1,2,3-triazol-4-yl)phenyl)amino)cyclopent-2-enone], the negative-log IC50 (pIC50) in data set [1] and in data set [2] was 5.00 to 6.00 throughout.

`CC1=C(Nc2cccc(-c3cn(Cc4ccccc4F)nn3)c2)CCC1=O` [Examples 06-8]: the pIC50 was 5.00 to 6.00 in data set [1] and above 6.00 in data set [2].

A word on the melting point: it is the temperature of the solid-liquid transition. The term pIC50 denotes the IC50 on a negative log10 scale, so that one unit is a factor of ten.

These data come from patent publication US9884806B2, “Cyclic vinylogous amides as bromodomain inhibitors” (ICAHN SCHOOL OF MEDICINE AT MOUNT SINAI, priority 2013, dated 2018).
